From publication PMC9883482, “TPX2 enhances the transcription factor activation of PXR and enhances the resistance of hepatocellular carcinoma cells to antitumor drugs” (Cell Death & Disease, 2023)

Columns and labels:
MHCC97-H cells = experiment: MTT cell survival examination; format: cell-based; settings: Homo sapiens, MHCC97H, 48 h
Experimental: (§1) In the process of dissolving these pure drug powders, stirring, vortexing, and ultrasonic vibration were used to assist dissolution [17, 18]. After a drug was fully dissolved, Dulbecco’s modified Eagle’s medium (DMEM) without fetal bovine serum (FBS) was used to dilute the drug dissolved in DMSO. For doxorubicin, we used DMEM without FBS to dissolve the drug. When performing cell viability experiments (tetrazolium [MTT] assays), these drugs were diluted.
(§2) The antitumor activity of antitumor drugs injuring HCC cells was examined by using MTT assay. After culturing the HCC cells, transfection experiments were performed, and the cells were then seeded in 96-well cell culture plates (about 8000 cells per well). […] After the cells were treated with the drug for about 48 h, a dose of […] tetrazolium (MTT) reagent was added, and cells with the MTT reagent were incubated for 5 to 6 h. After incubation with the MTT was complete, all liquid in the 96-well cell culture plate was discarded, and about 100 μl of DMSO was added to each well to dissolve the cell samples. During the process of lysing the cell samples, the cell culture plate was shaken for 15 minutes to completely lyse the cells. After the lysis step was complete, the cell culture plate was centrifuged at 12,000 rpm at 4 °C, and the supernatant was collected for evaluation.
(§3) All statistical analyses in the presence work were performed using the GraphPad 8.0 (GraphPad Software Corporation, Armonk, NY, USA). […] For the survival analysis data, the survival curves were analyzed by the log-rank (Mantel–Cox) test to detect the P-value of the survival curve, the median survival time, and the 95% confidence interval (CI). For the co-relationship analysis, the data were analyzed by linear regression to determine the overall trend of a group of data points. […] If the slope was positive, the horizontal coordinate was positively related to the vertical coordinate, and if the slope was negative, the horizontal coordinate was negatively related to the vertical coordinate. For the multi-grouped data, the ordinary one-way analysis of variance (ANOVA) and multiple comparison methods were used. An ANOVA was used to examine whether any difference between groups could be detected. The multiple comparisons (t-test) was used to detect differences between pairs of data.

MHCC97-L cells = experiment: MTT cell survival examination; format: cell-based; settings: Homo sapiens, MHCC97L, 48 h, median (95% CI)
Experimental: as §1, §2, §3

HepG2 cells = experiment: MTT cell survival examination; format: cell-based; settings: Homo sapiens, HepG2, 48 h
Experimental: as §1, §2, §3

[1] = system: cyp3a4 and mdr-1 mRNA (PXR downstream genes); settings: human
PXR = biological target: T1, PXR (Homo sapiens, UniProt O75469); settings: in combination with rifampicin
T1 sequence (O75469 1-434): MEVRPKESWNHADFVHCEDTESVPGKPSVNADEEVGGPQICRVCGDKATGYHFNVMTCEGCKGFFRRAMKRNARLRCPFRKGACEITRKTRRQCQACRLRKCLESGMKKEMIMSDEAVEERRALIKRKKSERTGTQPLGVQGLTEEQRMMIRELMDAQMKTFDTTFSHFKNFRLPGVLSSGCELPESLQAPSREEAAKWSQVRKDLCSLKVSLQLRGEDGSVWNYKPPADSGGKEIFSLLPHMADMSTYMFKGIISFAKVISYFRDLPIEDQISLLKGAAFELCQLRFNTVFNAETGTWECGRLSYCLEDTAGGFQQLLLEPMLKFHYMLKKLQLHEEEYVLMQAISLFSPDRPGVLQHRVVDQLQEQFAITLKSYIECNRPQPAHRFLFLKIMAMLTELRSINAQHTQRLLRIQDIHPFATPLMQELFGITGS

[2] = HepG2, Control, median (95% CI)
[3] = HepG2, TPX2 overexpression, median (95% CI)

SMILES | IC50 (MHCC97-H cells; Control, median (95% CI)) [µM] | IC50 (MHCC97-H cells; siTPX2, median (95% CI)) [µM] | IC50 (MHCC97-L cells; Control) [µM] | IC50 (MHCC97-L cells; TPX2 overexpression) [µM] | IC50 (HepG2 cells; [2]) [µM] | IC50 (HepG2 cells; [3]) [µM] | IC50 (HepG2 cells; HepG2, siTPX2, median (95% CI)) [µM] | effect on rifampicin- and TPX2-induced transcription of PXR downstream genes (mRNA levels) [1] | effect on TPX2/rifampicin-driven PXR recruitment to cyp3a4 promoter or enhancer (PXR)
COc1cc2nccc(Oc3ccc(NC(=O)C4(C(=O)Nc5ccc(F)cc5)CC4)cc3)c2cc1OC [cabozantinib] | 0.76 | 0.26 | 1.47 | 5.03 | 0.88 | 4.78 | 0.39 |  | 
COc1cccc2c1C(=O)c1c(O)c3c(c(O)c1C2=O)C[C@@](O)(C(=O)CO)C[C@@H]3O[C@H]1C[C@H](N)[C@H](O)[C@H](C)O1 [doxorubicin] | 0.2 | 0.06 | 0.25 | 0.82 | 0.33 | 1.59 | 0.05 |  | 
COc1cc([C@@H]2c3cc4c(cc3[C@@H](O[C@@H]3O[C@@H]5CO[C@@H](C)O[C@H]5[C@H](O)[C@H]3O)[C@H]3COC(=O)[C@H]23)OCO4)cc(OC)c1O [etoposide] | 0.25 | 0.1 | 0.38 | 1.32 | 0.46 | 1.93 | 0.18 |  | 
CCc1c2c(nc3ccc(OC(=O)N4CCC(N5CCCCC5)CC4)cc13)-c1cc3c(c(=O)n1C2)COC(=O)[C@]3(O)CC [irinotecan] | 0.52 | 0.16 | 0.43 | 0.97 | 0.3 | 0.82 | 0.1 |  | 
CC(=O)N1CCN(c2ccc(OCC3COC(Cn4ccnc4)(c4ccc(Cl)cc4Cl)O3)cc2)CC1 (stereo not drawn) [ketoconazole] |  |  |  |  |  |  |  | almost blocked the effects of rifampicin and TPX2 | 
COc1cc2nccc(Oc3ccc(NC(=O)NC4CC4)c(Cl)c3)c2cc1C(N)=O [lenvatinib] | 1.07 | 0.5 | 1.94 | 5.73 | 1.3 | 5.89 | 0.33 |  | 
CC(=O)O[C@H]1C(=O)[C@@]2(C)[C@H]([C@H](OC(=O)c3ccccc3)[C@]3(O)C[C@H](OC(=O)[C@H](O)[C@@H](NC(=O)c4ccccc4)c4ccccc4)C(C)=C1C3(C)C)[C@]1(OC(C)=O)CO[C@@H]1C[C@@H]2O [paclitaxel] | 0.0127 | 0.0042 | 0.022 | 0.15 | 0.0148 | 0.24 | 0.00831 |  | 
CNC(=O)c1cc(Oc2ccc(NC(=O)Nc3ccc(Cl)c(C(F)(F)F)c3)c(F)c2)ccn1 [regorafenib] | 0.99 | 0.75 | 1.5 | 4.93 | 1.01 | 3.65 | 0.62 |  | 
CC[C@]1(O)C[C@H]2CN(CCc3c([nH]c4ccccc34)[C@@](C(=O)OC)(c3cc4c(cc3OC)N(C=O)[C@H]3[C@@](O)(C(=O)OC)[C@H](OC(C)=O)[C@]5(CC)C=CCN6CC[C@]43[C@@H]65)C2)C1 [vincristine] |  |  |  |  |  |  |  |  | almost blocked
